Source: BindingDB's records for doi:10.1016/j.bmc.2012.08.058 (Purdue University, 2012)

Experiments:
[1] = target: T1, D(3) dopamine receptor (Homo sapiens, UniProt P35462); assay: Agonist activity at dopamine D3 receptor in human U2OS-D3 cells assessed as EA-tagged beta-arrestin translocation after 1.5 hrs by luminescence based beta-galactosidase assay
[2] = target: T1, D(3) dopamine receptor; assay: Displacement of [3H]-N-methylspiperone from human dopamine D3 receptor expressed in HEK293 cells after 30 mins by scintillation counting
[3] = target: D(2) dopamine receptor (Homo sapiens, UniProt P14416); assay: Displacement of [3H]-N-methylspiperone from human dopamine D2long receptor expressed in HEK293 cells after 30 mins by scintillation counting
Chain of D(2) dopamine receptor (P14416 whole entry): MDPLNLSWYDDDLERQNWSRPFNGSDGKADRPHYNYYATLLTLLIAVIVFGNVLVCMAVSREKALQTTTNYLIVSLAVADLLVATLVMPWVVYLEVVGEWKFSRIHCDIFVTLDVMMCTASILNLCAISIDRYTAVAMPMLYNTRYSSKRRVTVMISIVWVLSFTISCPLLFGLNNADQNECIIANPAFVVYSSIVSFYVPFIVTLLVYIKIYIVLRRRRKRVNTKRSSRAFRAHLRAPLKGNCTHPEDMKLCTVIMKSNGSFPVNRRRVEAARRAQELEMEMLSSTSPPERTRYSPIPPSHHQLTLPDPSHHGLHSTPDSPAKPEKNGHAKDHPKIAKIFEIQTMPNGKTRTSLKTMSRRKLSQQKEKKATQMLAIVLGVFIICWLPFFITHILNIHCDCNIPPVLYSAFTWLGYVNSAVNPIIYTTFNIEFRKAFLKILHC

T1 sequence (P35462 as listed by the source): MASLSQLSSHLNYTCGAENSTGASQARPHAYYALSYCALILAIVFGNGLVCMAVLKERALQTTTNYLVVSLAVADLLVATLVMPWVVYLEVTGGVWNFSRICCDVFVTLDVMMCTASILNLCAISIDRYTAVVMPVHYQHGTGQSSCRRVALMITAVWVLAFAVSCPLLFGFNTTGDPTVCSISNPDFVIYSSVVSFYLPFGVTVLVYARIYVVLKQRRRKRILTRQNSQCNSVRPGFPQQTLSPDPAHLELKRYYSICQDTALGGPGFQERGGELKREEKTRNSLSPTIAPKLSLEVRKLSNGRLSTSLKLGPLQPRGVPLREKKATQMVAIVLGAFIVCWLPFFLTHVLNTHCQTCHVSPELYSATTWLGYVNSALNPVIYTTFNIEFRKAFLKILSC

CCCN1C[C@H](c2ccc(O)cc2)C[C@@H]2c3cc(O)c(O)cc3CC[C@H]21
EC50 [1]: 46 nM
Ki [2]: 1.1 nM
Ki [3]: 160 nM
